According to patent US11459337B2, “Isothiazolo[5,4-D]pyrimidine compound as IRAK4 inhibitor” (priority 2018, dated 2022):
Read-outs that look alike come from different tables or passages of the source.

What was measured:
[1] = In vitro metabolic stability in liver microsome, monkey; assay type: in vitro ADME; conditions: Monkey liver microsomes, 1 μM compound, 0.5 mg/mL protein
Experimental: (§1) Metabolic Stability in Liver Microsome The test compounds at 1 μM were co-incubated with liver microsomes having a protein concentration of 0.5 mg/mL under the action of a reductive coenzyme II regeneration system in a 37° C. water bath. • 1) Positive controls included: testosterone (3A4 substrate), propylamine propiophenone (2D6 substrate), and diclofenac (2C9 substrate). The positive controls were incubated in the same condition as the test compounds. • 2) The reaction was stopped using a stop reagent containing the internal standard at time points of 0, 5, 10, 20, 30 and 60 minutes. […] CLint^mic: intrinsic microsomal clearance;

[2] = In vitro metabolic stability in liver microsome, human; assay type: in vitro ADME; conditions: Human liver microsomes, 1 μM compound, 0.5 mg/mL protein
Experimental: as §1

[3] = Pharmacokinetic study of oral and intravenous test compounds in SD rats; assay type: in vivo; conditions: rat, plasma, SD male rats; for Vd: read-out: Apparent volume of distribution Vdss; for AUC(0-t): read-out: Area under plasma concentration-time curve AUC0-last; for clearance: read-out: Clearance CL; for half-life: read-out: Half life T1/2 (converted); for bioavailability: read-out: Bioavailability F; for Cmax: read-out: Peak concentration Cmax; for Tmax: read-out: Time to peak Tmax
Experimental: Pharmacokinetic Study of Oral and Intravenous Test Compounds in SD Rats The test compound was mixed with a solution containing 10% of methyl pyrrolidone, 10% of polyethylene glycol stearate and 80% of water. The mixture was vortexed and sonicated to prepare a 1.5 mg/mL clarified solution, which was then filtered through a microporous membrane for later use. SD male rats aged 7 to 10 weeks were selected and administered intravenously with a dose of the candidate compound at 3 mg/kg. The test compound was mixed with 0.5% aqueous methylcellulose solution. The mixture was vortexed and sonicated to prepare a 2 mg/mL suspension for later use. SD male rats aged 7 to 10 weeks were selected and orally administered with a dose of the candidate compound at 10 mg/kg. Whole blood was collected at certain time points, and plasma was separated. The drug concentration was measured by LC-MS/MS, and pharmacokinetic parameters were calculated using Phoenix WinNonlin software (Pharsight, USA).

THP-1 cells = experiment: TNF-α ELISA assay in LPS-stimulated THP-1 cells; assay type: cell-based, human; conditions: Homo sapiens, THP-1, 18 h, TNF-α in supernatant, 150 ng/mL LPS
Experimental: TNF-α ELISA Assay in THP-1 Cells THP-1 human acute unicellular leukemia cells were purchased from ATCC (Cat #TIB-202) and incubated in a 37° C., 5% CO2 incubator. The medium was RPMI1640 (Gibco, Cat #22400-105), the supplementary was 10% FBS (Gibco, Cat #10091148); 1% PenStrep (Gibco, Cat #15140); 0.05 mM 2-mercaptoethanol (Sigma, Cat #M6250). TNF-α content in the culture supernatant was measured by a TNF-α Elisa kit. TNF-α was produced by stimulation of THP-1 cells with 150 ng/mL LPS (Sigma, Cat #L6529). Normal THP-1 cells in logarithmic phase were inoculated in 96-well plates (Corning #3599) at a certain concentration (1×10^5/100 μL) and then incubated in an incubator. After two hours, 16.7 μL of test compound of different concentrations (8×final concentration) was added and the mixture was incubated. After one hour, 16.7 μL of 1200 ng/mL LPS was added and the mixture was incubated. After 18 hours, the culture was centrifuged and the supernatant was collected. The TNF-α content was measured by a TNF-α Elisa kit. Finally, the OD signals (OD450-OD570) were read on an envision plate reader. The OD450-OD570 signals were converted to percent inhibition. Inhibition %=(ZPE−sample)/(ZPE−HPE)×100. “HPE” represents the OD450-OD570 signal value of the control without LPS-stimulated cells, and “ZPE” represents the OD450-OD570 signal value of the control with LPS-stimulated cells. IC50 values for compounds were calculated by XLFit in the Excel. Y=Bottom+(Top−Bottom)/(1+(IC50/X)^HillSlope). Equation: […]

[4] = In vitro metabolic stability in liver microsome, mouse; assay type: in vitro ADME; conditions: Mouse liver microsomes, 1 μM compound, 0.5 mg/mL protein
Experimental: as §1

[5] = In vitro metabolic stability in liver microsome, rat; assay type: in vitro ADME; conditions: Rat liver microsomes, 1 μM compound, 0.5 mg/mL protein
Experimental: as §1

[6] = In vitro metabolic stability in liver microsome, dog; assay type: in vitro ADME; conditions: Dog liver microsomes, 1 μM compound, 0.5 mg/mL protein
Experimental: as §1

[7] = test system: LPS-induced TNF-α secretion; experiment: Pharmacodynamic study evaluating LPS-induced TNF-α secretion in SD rats; assay type: in vivo; conditions: for efficacy compared with dexamethasone DEX: DEX 0.5 mg/kg; for inhibitory effect on LPS-induced TNF-α secretion: LPS 1 mg/kg i.p.
Experimental: Pharmacodynamic Study Evaluating […] (LPS)-Induced TNF-α Secretion in SD Rats SD rats were orally administered with a solvent, dexamethasone (DEX, 0.5 mg/kg) as positive control, and the test compound, and were intraperitoneally injected with LPS (1 mg/kg) 0.5 hours after the administration Animals were euthanized with CO2 2 hours after LPS injection. Cardiac blood was collected into EDTA-K2 vacutainers, and a part of the anticoagulated blood was centrifuged and the plasma was frozen at −80° C. Frozen plasma was thawed at room temperature and the concentration of TNF-α in the plasma was measured using ELISA kit. The experimental data were expressed using mean±SEM, and TNF-α levels were analyzed by One-way ANOVA. Significant differences were considered for p<0.05.

human IRAK4 = human IRAK4 (Homo sapiens (Human), UniProt Q9NWZ3); experiment: 33P-labeled kinase activity assay (Reaction Biology Corp), in vitro enzymatic activity; assay type: biochemical; conditions: 20 μM ATP, 3 nM kinase, MBP substrate
human IRAK4, sequence (Q9NWZ3 whole entry): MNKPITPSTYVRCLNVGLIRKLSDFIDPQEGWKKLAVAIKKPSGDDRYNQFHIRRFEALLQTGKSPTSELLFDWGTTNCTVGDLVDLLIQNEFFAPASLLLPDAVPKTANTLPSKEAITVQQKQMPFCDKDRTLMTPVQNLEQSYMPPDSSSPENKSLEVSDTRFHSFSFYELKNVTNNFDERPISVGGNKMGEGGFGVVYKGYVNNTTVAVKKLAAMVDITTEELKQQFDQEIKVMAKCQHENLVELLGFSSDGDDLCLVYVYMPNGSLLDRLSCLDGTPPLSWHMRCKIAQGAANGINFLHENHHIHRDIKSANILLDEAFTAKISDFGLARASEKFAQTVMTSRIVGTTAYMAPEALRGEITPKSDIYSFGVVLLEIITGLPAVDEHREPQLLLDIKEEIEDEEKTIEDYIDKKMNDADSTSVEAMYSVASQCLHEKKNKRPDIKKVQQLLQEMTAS
Experimental: The inhibitory activity of the test compounds against human IRAK4 was evaluated by measuring IC50 values in a ^33P-labeled kinase activity assay (Reaction Biology Corp). Buffer conditions: 20 mM Hepes (pH 7.5), 10 mM MgCl2, 1 mM EGTA, 0.02% Brij35, 0.02 mg/mL BSA, 0.1 mM Na3VO4, 2 mM DTT, 1% DMSO. Procedures: The test compound was dissolved in DMSO at room temperature to prepare a 10 mM solution for later use. The substrate was dissolved in fresh buffer, to which the kinase was added and mixed well. The DMSO solution containing the test compound was added to the above mixed reaction system by an acoustic technique (Echo 550). The concentrations of the compounds in reaction system were 10 μM, 3.33 μM, 1.11 μM, 0.370 μM, 0.123 μM, 41.2 nM, 13.7 nM, 4.57 nM, 1.52 nM, and 0.508 nM. After 15 minutes of incubation, the reaction was started by adding ^33P-ATP (activity: 0.01 μCi/μL; the corresponding concentration is listed in Table 1). Supplier's catalog number, lot number and concentration information in the reaction system for IRAK4 and its substrate are listed in Table 1. After 120 minutes of reaction at room temperature, the resulting solution was loaded on P81 ion exchange chromatography paper sheet (Whatman #3698-915). After repeated washing with 0.75% phosphoric acid solution, the radioactivity of the phosphorylated substrate residue on the paper sheet was measured. The kinase activity data are shown as a comparison of the kinase activity of the test compound and the kinase activity of the blank (DMSO only) and a curve was fitted using Prism4 software (GraphPad) to give IC50 values, with the experimental results shown in Table 2. [table]

Row | SMILES | Re1 h % (residue of test compound at 1 hour) [1] [%] | Re1 h % (residue of test compound at 1 hour) [2] [%] | Vd ([3]; Intravenous, 3 mg/kg) [L/kg] | AUC(0-t) ([3]; Intravenous, 3 mg/kg) [µM·h] | clearance ([3]; Intravenous, 3 mg/kg) [mL/min/kg] | half-life ([3]; Intravenous, 3 mg/kg) [h] | AUC(0-t) ([3]; Oral, 10 mg/kg) [µM·h] | bioavailability ([3]; Oral, 10 mg/kg) [%] | Cmax ([3]; Oral, 10 mg/kg) [nM] | Tmax ([3]; Oral, 10 mg/kg) [h] | IC50 (THP-1 cells) [nM] | Re1 h % (residue of test compound at 1 hour) [4] [%] | Re1 h % (residue of test compound at 1 hour) [5] [%] | Re1 h % (residue of test compound at 1 hour) [6] [%] | IC50 (human IRAK4) [nM] | efficacy compared with dexamethasone DEX ([7]; FIG. 1, oral, 30 mpk) | inhibitory effect on LPS-induced TNF-α secretion ([7]; FIG. 1, oral, 30 mpk) | inhibitory effect compared with reference compounds WXR2, WXR3 and WXR4 ([7]; FIG. 1, oral, same doses (30 mpk)) | inhibitory effect on LPS-induced TNF-α secretion ([7]; FIG. 2, oral, 20 mpk) | efficacy compared with dexamethasone DEX ([7]; FIG. 2, oral, 20 mpk)
1 | Cc1nsc2nc(Nc3cnn(C4CCOCC4)c3)nc(N[C@H]3CC[C@H](N4CCOCC4)CC3)c12 [WX001] | 3.2 | 50.0 | 4.6 | 1.75 | 57 | 1.4 | 2.05 | 35 | 397 | 2.3 | 177 | 39.1 | 76.6 | 60.5 | 6.8 | equivalent | significant inhibitory effect | significantly superior | significant inhibitory effect | 
2 | CC(C)c1nsc2nc(Nc3cnn(C4CCOCC4)c3)nc(N[C@H]3CC[C@H](N4CCOCC4)CC3)c12 [WX003] |  |  | 4.8 | 1.33 | 71.4 | 1 | 2.01 | 48 | 523 | 0.8 | 329 |  |  |  | 2.9 |  |  |  |  | 
3 | COC(=O)N1C2CC1CN([C@H]1CC[C@H](Nc3nc(Nc4cnn(C5CCOCC5)c4)nc4snc(C)c34)CC1)C2 [WX044] |  |  |  |  |  |  |  |  |  |  |  |  |  |  | 40.7 |  |  |  | significant inhibitory effect | 

The next lines start with results.

Row | Re1 h % (residue of test compound at 1 hour) [1] [%] | Re1 h % (residue of test compound at 1 hour) [2] [%] | Vd ([3]; Intravenous, 3 mg/kg) [L/kg] | AUC(0-t) ([3]; Intravenous, 3 mg/kg) [µM·h] | clearance ([3]; Intravenous, 3 mg/kg) [mL/min/kg] | half-life ([3]; Intravenous, 3 mg/kg) [h] | AUC(0-t) ([3]; Oral, 10 mg/kg) [µM·h] | bioavailability ([3]; Oral, 10 mg/kg) [%] | Cmax ([3]; Oral, 10 mg/kg) [nM] | Tmax ([3]; Oral, 10 mg/kg) [h] | IC50 (THP-1 cells) [nM] | Re1 h % (residue of test compound at 1 hour) [4] [%] | Re1 h % (residue of test compound at 1 hour) [5] [%] | Re1 h % (residue of test compound at 1 hour) [6] [%] | IC50 (human IRAK4) [nM] | SMILES | efficacy compared with dexamethasone DEX ([7]; FIG. 1, oral, 30 mpk) | inhibitory effect on LPS-induced TNF-α secretion ([7]; FIG. 1, oral, 30 mpk) | inhibitory effect compared with reference compounds WXR2, WXR3 and WXR4 ([7]; FIG. 1, oral, same doses (30 mpk)) | inhibitory effect on LPS-induced TNF-α secretion ([7]; FIG. 2, oral, 20 mpk) | efficacy compared with dexamethasone DEX ([7]; FIG. 2, oral, 20 mpk)
4 |  |  | 3.3 | 1.33 | 79 | 0.9 | 1.64 | 38 | 389 | 2 | 417 |  |  |  | 5.7 | Cc1nsc2nc(Nc3cnn(C4CCOC4)c3)nc(N[C@H]3CC[C@H](N4CCOCC4)CC3)c12 (some centres unmarked) [WX007] |  |  |  |  | 
5 |  |  | 5.7 | 1.46 | 73.3 | 1.8 | 2.69 | 58 | 540 | 2.5 | 649 |  |  |  | 21.3 | Cc1nsc2nc(Nc3cnn(C4COC4)c3)nc(N[C@H]3CC[C@H](N4CCOCC4)CC3)c12 [WX009] |  |  |  |  | 
6 |  |  | 4.5 | 1.77 | 50.6 | 2.2 | 1.36 | 23 | 308 | 1.5 | 156 |  |  |  | 2 | COC(=O)N1CCN([C@H]2CC[C@H](Nc3nc(Nc4cnn(C5CCOCC5)c4)nc4snc(C)c34)CC2)CC1 [WX026] |  |  |  | significant inhibitory effect | equivalent
7 | 0.6 | 23.7 |  |  |  |  |  |  |  |  |  | 0.0 | 32.3 | 5.5 |  | c1cc2c(N[C@H]3CC[C@H](N4CCOCC4)CC3)nc(Nc3cnn(C4CCOCC4)c3)nc2s1 [WXR1, reference compound] |  |  |  |  | 
